Test results published in the NIST ThermoML archive (doi:10.1016/j.jct.2011.09.028).
± gives the expanded uncertainty stated by the source.

How the values were obtained:
[1] = activity coefficient (dimensionless); of the first substance listed, at infinite dilution; xn = mol fraction of the nth substance listed; settings: 101 kPa, Liquid, Chromatography, x1 = 0
[2] = 101.33 kPa, Liquid, Vibrating tube method

Structure (SMILES) | activity coefficient ([1]; 318.15 K) | activity coefficient ([1]; 323.15 K) | activity coefficient ([1]; 333.15 K) | activity coefficient ([1]; 343.15 K) | activity coefficient ([1]; 353.15 K) | mass density ([2]; 288.15 K) [kg/m3] | mass density ([2]; 293.15 K) [kg/m3] | mass density ([2]; 298.15 K) [kg/m3] | mass density ([2]; 303.15 K) [kg/m3] | mass density ([2]; 308.15 K) [kg/m3] | mass density ([2]; 313.15 K) [kg/m3] | mass density ([2]; 318.15 K) [kg/m3]
ClC(Cl)Cl [trichloromethane] + CCn1cc[n+](C)c1.N#C[B-](C#N)(C#N)C#N | 0.812 ± 0.038 | 0.829 ± 0.038 | 0.863 ± 0.039 | 0.895 ± 0.04 | 0.926 ± 0.041 |  |  |  |  |  |  | 
C1CCCCC1 [cyclohexane] + CCn1cc[n+](C)c1.N#C[B-](C#N)(C#N)C#N | 13.8 ± 0.7 | 13.4 ± 0.7 | 12.5 ± 0.6 | 11.8 ± 0.6 | 11.1 ± 0.6 |  |  |  |  |  |  | 
Cc1ccccc1 [toluene] + CCn1cc[n+](C)c1.N#C[B-](C#N)(C#N)C#N | 1.68 ± 0.08 | 1.69 ± 0.08 | 1.71 ± 0.09 | 1.72 ± 0.09 | 1.74 ± 0.09 |  |  |  |  |  |  | 
CCCCCCC [heptane] + CCn1cc[n+](C)c1.N#C[B-](C#N)(C#N)C#N | 42.4 ± 2.2 | 40.7 ± 2.1 | 37.5 ± 1.9 | 34.8 ± 1.8 | 32.3 ± 1.7 |  |  |  |  |  |  | 
CCC(C)=O [butanone] + CCn1cc[n+](C)c1.N#C[B-](C#N)(C#N)C#N | 0.577 ± 0.032 | 0.584 ± 0.032 | 0.605 ± 0.033 | 0.611 ± 0.033 | 0.626 ± 0.033 |  |  |  |  |  |  | 
CC(C)=O [acetone] + CCn1cc[n+](C)c1.N#C[B-](C#N)(C#N)C#N | 0.437 ± 0.029 | 0.443 ± 0.03 | 0.454 ± 0.03 | 0.466 ± 0.03 | 0.479 ± 0.03 |  |  |  |  |  |  | 
CO [methanol] + CCn1cc[n+](C)c1.N#C[B-](C#N)(C#N)C#N | 0.917 ± 0.041 | 0.89 ± 0.04 | 0.84 ± 0.039 | 0.795 ± 0.038 | 0.755 ± 0.036 |  |  |  |  |  |  | 
CCOC(C)=O [ethyl acetate] + CCn1cc[n+](C)c1.N#C[B-](C#N)(C#N)C#N | 0.989 ± 0.043 | 1 ± 0.04 | 1.02 ± 0.05 | 1.04 ± 0.05 | 1.06 ± 0.05 |  |  |  |  |  |  | 
COC(C)(C)C [2-methoxy-2-methylpropane] + CCn1cc[n+](C)c1.N#C[B-](C#N)(C#N)C#N | 2.77 ± 0.14 | 2.8 ± 0.14 | 2.85 ± 0.15 | 2.9 ± 0.15 | 2.95 ± 0.15 |  |  |  |  |  |  | 
CC#N [acetonitrile] + CCn1cc[n+](C)c1.N#C[B-](C#N)(C#N)C#N | 0.428 ± 0.029 | 0.43 ± 0.029 | 0.43 ± 0.029 | 0.431 ± 0.029 | 0.432 ± 0.029 |  |  |  |  |  |  | 
ClC(Cl)(Cl)Cl [tetrachloromethane] + CCn1cc[n+](C)c1.N#C[B-](C#N)(C#N)C#N | 3.56 ± 0.18 | 3.56 ± 0.18 | 3.55 ± 0.18 | 3.54 ± 0.18 | 3.53 ± 0.18 |  |  |  |  |  |  | 
CC(C)OC(C)C [diisopropyl ether] + CCn1cc[n+](C)c1.N#C[B-](C#N)(C#N)C#N | 7.07 ± 0.36 | 7.08 ± 0.36 | 7.1 ± 0.37 | 7.11 ± 0.37 | 7.13 ± 0.37 |  |  |  |  |  |  | 
CCCO [propan-1-ol] + CCn1cc[n+](C)c1.N#C[B-](C#N)(C#N)C#N | 1.62 ± 0.08 | 1.55 ± 0.08 | 1.42 ± 0.07 | 1.31 ± 0.06 | 1.22 ± 0.06 |  |  |  |  |  |  | 
Cc1cccc(C)c1 [1,3-dimethylbenzene] + CCn1cc[n+](C)c1.N#C[B-](C#N)(C#N)C#N | 2.62 ± 0.13 | 2.62 ± 0.13 | 2.63 ± 0.13 | 2.63 ± 0.13 | 2.64 ± 0.14 |  |  |  |  |  |  | 
C[N+](=O)[O-] [nitromethane] + CCn1cc[n+](C)c1.N#C[B-](C#N)(C#N)C#N | 0.419 ± 0.029 | 0.421 ± 0.029 | 0.423 ± 0.029 | 0.426 ± 0.029 | 0.429 ± 0.029 |  |  |  |  |  |  | 

The remaining lines, values ahead:

activity coefficient ([1]; 318.15 K) | activity coefficient ([1]; 323.15 K) | activity coefficient ([1]; 333.15 K) | activity coefficient ([1]; 343.15 K) | activity coefficient ([1]; 353.15 K) | mass density ([2]; 288.15 K) [kg/m3] | mass density ([2]; 293.15 K) [kg/m3] | mass density ([2]; 298.15 K) [kg/m3] | mass density ([2]; 303.15 K) [kg/m3] | mass density ([2]; 308.15 K) [kg/m3] | mass density ([2]; 313.15 K) [kg/m3] | mass density ([2]; 318.15 K) [kg/m3] | Structure (SMILES)
28.8 ± 1.5 | 27.8 ± 1.4 | 26.1 ± 1.4 | 24.6 ± 1.3 | 23.3 ± 1.2 |  |  |  |  |  |  |  | C=CCCCCCC [oct-1-ene] + CCn1cc[n+](C)c1.N#C[B-](C#N)(C#N)C#N
1.63 ± 0.08 | 1.56 ± 0.08 | 1.43 ± 0.07 | 1.32 ± 0.06 | 1.23 ± 0.06 |  |  |  |  |  |  |  | CC(C)O [propan-2-ol] + CCn1cc[n+](C)c1.N#C[B-](C#N)(C#N)C#N
0.656 ± 0.034 | 0.665 ± 0.034 | 0.682 ± 0.034 | 0.698 ± 0.035 | 0.714 ± 0.035 |  |  |  |  |  |  |  | ClCCl [dichloromethane] + CCn1cc[n+](C)c1.N#C[B-](C#N)(C#N)C#N
 |  |  |  |  | 1044.44 ± 0.26 | 1040.43 ± 0.26 | 1036.44 ± 0.26 | 1032.47 ± 0.26 | 1028.54 ± 0.25 | 1024.64 ± 0.25 | 1020.76 ± 0.25 | CCn1cc[n+](C)c1.N#C[B-](C#N)(C#N)C#N [1-ethyl-3-methylimidazolium tetracyanoborate]
2.62 ± 0.13 | 2.61 ± 0.13 | 2.61 ± 0.13 | 2.61 ± 0.13 | 2.61 ± 0.13 |  |  |  |  |  |  |  | CCc1ccccc1 [ethylbenzene] + CCn1cc[n+](C)c1.N#C[B-](C#N)(C#N)C#N
0.452 ± 0.03 | 0.47 ± 0.03 | 0.505 ± 0.031 | 0.539 ± 0.031 | 0.574 ± 0.032 |  |  |  |  |  |  |  | COCCOC [1,2-dimethoxyethane] + CCn1cc[n+](C)c1.N#C[B-](C#N)(C#N)C#N
1.15 ± 0.05 | 1.15 ± 0.05 | 1.17 ± 0.05 | 1.18 ± 0.05 | 1.19 ± 0.05 |  |  |  |  |  |  |  | c1ccccc1 [benzene] + CCn1cc[n+](C)c1.N#C[B-](C#N)(C#N)C#N
0.528 ± 0.031 | 0.535 ± 0.031 | 0.549 ± 0.031 | 0.563 ± 0.032 | 0.576 ± 0.032 |  |  |  |  |  |  |  | COC(=O)OC [dimethyl carbonate] + CCn1cc[n+](C)c1.N#C[B-](C#N)(C#N)C#N
20.4 ± 1.1 | 19.7 ± 1 | 18.4 ± 1 | 17.2 ± 0.9 | 16.3 ± 0.8 |  |  |  |  |  |  |  | CC1CCCCC1 [methylcyclohexane] + CCn1cc[n+](C)c1.N#C[B-](C#N)(C#N)C#N
0.942 ± 0.042 | 0.947 ± 0.042 | 0.957 ± 0.042 | 0.967 ± 0.043 | 0.978 ± 0.043 |  |  |  |  |  |  |  | c1ccsc1 [thiophene] + CCn1cc[n+](C)c1.N#C[B-](C#N)(C#N)C#N
0.653 ± 0.034 | 0.662 ± 0.034 | 0.682 ± 0.034 | 0.7 ± 0.035 | 0.723 ± 0.036 |  |  |  |  |  |  |  | COC(C)=O [methyl ethanoate] + CCn1cc[n+](C)c1.N#C[B-](C#N)(C#N)C#N
0.699 ± 0.035 | 0.709 ± 0.035 | 0.727 ± 0.036 | 0.744 ± 0.036 | 0.761 ± 0.037 |  |  |  |  |  |  |  | C1CCOC1 [tetrahydrofuran] + CCn1cc[n+](C)c1.N#C[B-](C#N)(C#N)C#N
318 ± 17 | 323 ± 17 | 333 ± 17 | 343 ± 18 | 353 ± 18 |  |  |  |  |  |  |  | CCC1CCCCC1 [ethylcyclohexane] + CCn1cc[n+](C)c1.N#C[B-](C#N)(C#N)C#N
1.16 ± 0.05 | 1.19 ± 0.05 | 1.28 ± 0.06 | 1.34 ± 0.06 | 1.41 ± 0.07 |  |  |  |  |  |  |  | FC(F)(F)C(Cl)Br (configuration not stated) [1-bromo-1-chloro-2,2,2-trifluoroethane] + CCn1cc[n+](C)c1.N#C[B-](C#N)(C#N)C#N
1.3 ± 0.06 | 1.25 ± 0.06 | 1.15 ± 0.05 | 1.07 ± 0.05 | 1 ± 0.04 |  |  |  |  |  |  |  | CCO [ethanol] + CCn1cc[n+](C)c1.N#C[B-](C#N)(C#N)C#N
64.2 ± 3.3 | 61.2 ± 3.2 | 55.8 ± 2.9 | 51 ± 2.7 | 47 ± 2.4 |  |  |  |  |  |  |  | CCCCCCCC [octane] + CCn1cc[n+](C)c1.N#C[B-](C#N)(C#N)C#N
